The values below come from patent US7741479B2, “Urea inhibitors of MAP kinases” (Locus Pharmaceuticals, Inc., priority 2004, dated 2010).

This test concerns the target T1, p38 (Homo sapiens, UniProt Q16539).
T1 construct: made in house
The test can be described thus: Protein Kinase Assay (33P incorporation from γ-[33P]ATP into GST-ATF-2 substrate). In kind it is biochemical. The following applies: for inhibition at 3 µM: compound at 3 μM, read-out: Protein Kinase (% Inhibition at 3 μM). As to the method:
Human non-activated p38 kinase (MW=43 kDa) was purified according to the protocol described herein. Chemicals were purchased from Calbiochem. Fluorescence characterizations were conducted using a Cary Eclipse (Varian Analytical Instruments, Walnut Creek, Calif.). Research-grade CM5 sensor chips and coupling reagents (N-ethyl-N′-dimethylaminopropylcarbodiimide (EDC) N-hydroxysuccinimide (NHS), and 1 M ethanolamine HCl, pH 8.5) were purchased from Biacore AB (Uppsala, Sweden). The biosensor analyses were conducted using a Biacore 3000 SPR instrument. The kinetic analyses were carried on a Molecular Devices spectrophotometer (Molecular Devices Corporation, CA, USA).
Protein Kinase Assay. The protein kinase activity of p38 was determined by measuring the incorporation of ^33P from γ-[^33P]ATP into the GST-ATF-2 substrate, amino acids 19-96 (Upstate, NY USA). […] Compounds were preincubated with 10 nM p38 for 20 min at 30° C.; the reactions were initiated by the addition of GST-ATF2 and ATP and incubated for 70 min at 30° C. before being stopped by the addition of 10 μL of 600 mM phosphoric acid. The phosphorylated substrate was captured on phosphocellulose 96-well plate (Millipore MAPHNOB 10), washed with 100 mM phosphoric acid, and counted in a BeckmenCoulter LS6500 liquid scintillation counter.

T1 sequence (Q16539 whole entry): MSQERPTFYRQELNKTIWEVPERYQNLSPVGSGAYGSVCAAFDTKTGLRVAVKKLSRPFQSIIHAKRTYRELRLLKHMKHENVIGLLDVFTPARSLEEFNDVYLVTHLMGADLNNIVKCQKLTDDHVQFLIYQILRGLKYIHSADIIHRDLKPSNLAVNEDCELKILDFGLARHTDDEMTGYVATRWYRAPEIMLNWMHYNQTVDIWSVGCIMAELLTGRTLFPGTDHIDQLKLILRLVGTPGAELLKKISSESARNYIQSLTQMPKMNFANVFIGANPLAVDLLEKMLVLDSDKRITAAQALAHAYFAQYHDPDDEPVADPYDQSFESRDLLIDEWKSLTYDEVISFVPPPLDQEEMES

What is called inhibition is the share of the control response that was lost under treatment. Regarding `CC(C)(C)c1cc(C(=O)N2CCS(=O)(=O)CC2)c(NC(=O)NC(C)(C)c2ccccc2)s1` [Example 66, 1-[5-tert-butyl-3-(1,1-dioxo-1λ^6-thiomorpholine-4-carbonyl)thiophen-2-yl]-3-(1-methyl-1-phenylethyl)urea], the inhibition at 3 µM was 0 to 25%.

Turning to `Cc1cccc(NC(=O)Nc2sc(C(C)(C)C)cc2C(=O)N2CCS(=O)(=O)CC2)c1` [Example 67, 1-[5-tert-butyl-3-(1,1-dioxo-1λ^6-thiomorpholine-4-carbonyl)thiophen-2-yl]-3-(3-tolyl)urea], the inhibition at 3 µM fell in the range of 76 to 100%.

For the compound `CC(C)(C)c1cc(C(=O)N2CCS(=O)(=O)CC2)c(NC(=O)Nc2cc(Cl)cc(Cl)c2)s1` [Example 68, 1-[5-tert-butyl-3-(1,1-dioxo-1λ^6-thiomorpholine-4-carbonyl)thiophen-2-yl]-3-(3,5-dichlorophenyl)urea], the inhibition at 3 µM lay in the range of 76 to 100%.

Consider `Cn1ccc(NC(=O)Nc2sc(C(C)(C)C)cc2C(=O)N2CCS(=O)(=O)CC2)n1` [Example 69, 1-[5-tert-butyl-3-(1,1-dioxo-1λ^6-thiomorpholine-4-carbonyl)thiophen-2-yl]-3-(1-methyl-1H-pyrazol-3-yl)urea], for which the inhibition at 3 µM fell in the range of 0 to 25%.

Take `Cc1cc(NC(=O)Nc2sc(C(C)(C)C)cc2C(=O)N2CCS(=O)(=O)CC2)cc(C)n1` [Example 70, 1-[5-tert-butyl-3-(1,1-dioxo-1λ^6-thiomorpholine-4-carbonyl)thiophen-2-yl]-3-(2,6-dimethylpyridin-4-yl)urea]: the inhibition at 3 µM was 26 to 50%.

Regarding `CC(C)(C)c1cc(C(=O)N2CCS(=O)(=O)CC2)c(NC(=O)Nc2ccc3ocnc3c2)s1` [Example 71, 1-Benzoxazol-5-yl-3-[5-tert-butyl-3-(1,1-dioxo-1λ^6-thiomorpholine-4-carbonyl)thiophen-2-yl]urea], the inhibition at 3 µM was 76 to 100%.

In the case of `CC(C)(C)c1cc(C(=O)N2CCS(=O)(=O)CC2)c(NC(=O)Nc2ccc3ncoc3c2)s1` [Example 72, 1-Benzoxazol-6-yl-3-[5-tert-butyl-3-(1,1-dioxo-1λ^6-thiomorpholine-4-carbonyl)thiophen-2-yl]urea], the inhibition at 3 µM lay in the range of 76 to 100%.

For the compound `CC(C)(C)c1cc(C(=O)N2CCNC(=O)CC2)c(NC(=O)Nc2ccc3c(c2)OCO3)s1` [Example 73, 1-Benzo[1,3]dioxol-5-yl-3-[5-tert-butyl-3-(5-oxo-[1,4]diazepane-1-carbonyl)-thiophen-2-yl]urea], the inhibition at 3 µM fell in the range of 76 to 100%.

As for `CC(C)(C)c1cc(C(=O)N2CCNC(=O)CC2)c(NC(=O)Nc2ccc3c(c2)OC(F)(F)O3)s1` [Example 74, 1-[5-tert-butyl-3-(5-oxo-[1,4]diazepane-1-carbonyl)-thiophen-2-yl]-3-(2,2-difluoro-benzo[1,3]dioxol-5-yl)urea], the inhibition at 3 µM fell in the range of 76 to 100%.

As for `CC(C)(C)c1cc(C(=O)Nc2cccnc2)c(NC(=O)Nc2ccc(Cl)cc2)s1` [Example 75, 1-(3-(Pyridin-3-ylcarbamoyl)-5-tert-butylthiophen-2-yl)-3-(4-chlorophenyl)urea], the inhibition at 3 µM lay in the range of 76 to 100%.

Take `CC(C)(C)c1cc(C(=O)N2CCS(=O)(=O)CC2)c(NC(=O)Nc2ccc(C#N)cc2Cl)s1` [Example 76, 1-[5-tert-butyl-3-(1,1-dioxo-1λ^6-thiomorpholine-4-carbonyl)thiophen-2-yl]-3-(2-chloro-4-cyanophenyl)urea]: the inhibition at 3 µM was 76 to 100%.

With `CC(C)(C)c1cc(C(=O)N2CCS(=O)(=O)CC2)c(NC(=O)NC2(c3ccccc3)CC2)s1` [Example 77, 1-[5-tert-butyl-3-(1,1-dioxo-1λ^6-thiomorpholine-4-carbonyl)thiophen-2-yl]-3-(1-phenylcyclopropyl)urea], the inhibition at 3 µM was in the range of 26 to 50%.

With `CC1C(=O)NCCN1C(=O)c1cc(C(C)(C)C)sc1NC(=O)Nc1ccc(Cl)cc1` (stereo not drawn) [Example 78, 1-[5-tert-butyl-3-(2-methyl-3-oxopiperazine-1-carbonyl)thiophen-2-yl]-3-(4-chlorophenyl)urea], the inhibition at 3 µM lay within 76 to 100%.

`CC(C)(C)c1nc(C(=O)N2CCNS(=O)(=O)CC2)c(NC(=O)Nc2cccc3ccccc23)s1` [Example 80, 1-[2-tert-butyl-4-(1,1-dioxo-1λ^6-[1,2,5]thiadiazepane-5-carbonyl)thiazol-5-yl]-3-naphthalen-1-ylurea]: the inhibition at 3 µM was in the range of 76 to 100%.

Regarding `CN(CCS(C)(=O)=O)C(=O)c1cc(C(C)(C)C)sc1NC(=O)Nc1cccc2ccccc12` [Example 82, 1-(3-(N-methyl-N-(2-(methylsulfonyl)ethyl)carbamoyl)-5-tert-butylthiophen-2-yl)-3-(naphthalen-1-yl)urea], the inhibition at 3 µM lay within 76 to 100%.

Consider `CC(C)(C)c1nc(C(=O)N2CCNC(=O)C2)c(NC(=O)Nc2cccc3ccccc23)s1` [Example 83, 1-[2-tert-butyl-4-(3-oxopiperazine-1-carbonyl)thiazol-5-yl]-3-naphthalen-1-ylurea], for which the inhibition at 3 µM was in the range of 76 to 100%.

As for `CC(C)(C)c1cc(C(=O)N2CCS(=O)(=O)CC2)c(NC(=O)Nc2ccc(C#N)cc2C(F)(F)F)s1` [Example 84, 1-[5-tert-butyl-3-(1,1-dioxo-1λ^6-thiomorpholine-4-carbonyl)thiophen-2-yl]-3-(4-cyano-2-trifluoromethylphenyl)urea], the inhibition at 3 µM was in the range of 76 to 100%.

With `CC(C)(C)c1cc(C(=O)N2CCS(=O)(=O)CC2)c(NC(=O)Nc2cnc(O)c3ccccc23)s1` [Example 85, 1-[5-tert-butyl-3-(1,1-dioxo-1λ^6-thiomorpholine-4-carbonyl)thiophen-2-yl]-3-(1-hydroxyisoquinolin-4-yl)urea], the inhibition at 3 µM is 26 to 50%.

As for `CC(C)(C)c1cc(C(=O)N[C@H]2CC(=O)NC2=O)c(NC(=O)Nc2cccc3ccccc23)s1` [Example 86], the inhibition at 3 µM fell in the range of 76 to 100%.

As to `CC1C(=O)NCCN1C(=O)c1cc(C(C)(C)C)sc1NC(=O)Nc1cccc2ccccc12` (stereo not drawn) [Example 87, 1-[5-tert-butyl-3-(2-methyl-3-oxopiperazine-1-carbonyl)thiophen-2-yl]-3-naphthalen-1-ylurea], the inhibition at 3 µM lay within 76 to 100%.

Regarding `COC(=O)CC1C(=O)NCCN1C(=O)c1cc(C(C)(C)C)sc1NC(=O)Nc1cccc2ccccc12` (stereo not drawn) [Example 88, {1-[5-tert-butyl-2-(3-naphthalen-1-yl-ureido)thiophene-3-carbonyl]-3-oxo-piperazin-2-yl}-acetic acid methyl ester], the inhibition at 3 µM was 76 to 100%.

Consider `CC(C)(C)c1cc(C(=O)N2CCNC(=O)CC2)c(NC(=O)Nc2ccc(C#N)cc2C(F)(F)F)s1` [Example 89, 1-[5-tert-butyl-3-(5-oxo-[1,4]diazepane-1-carbonyl)thiophen-2-yl]-3-(4-cyano-2-trifluoromethylphenyl)urea], for which the inhibition at 3 µM lay in the range of 76 to 100%.

As to `CC(C)(C)c1cc(C(=O)N2CCNC(=O)CC2)c(NC(=O)Nc2ccc(C#N)cc2Cl)s1` [Example 90, 1-[5-tert-Butyl-3-(5-oxo-[1,4]diazepane-1-carbonyl)thiophen-2-yl]-3-(2-chloro-4-cyanophenyl)urea], the inhibition at 3 µM was 76 to 100%.

For the compound `CC(C)(C)c1cc(C(=O)N2CCNS(=O)(=O)CC2)c(NC(=O)Nc2ccc(C#N)cc2Cl)s1` [Example 92, 1-[5-tert-Butyl-3-(1,1-dioxo-1λ^6-[1,2,5]thiadiazepane-5-carbonyl)thiophen-2-yl]-3-(4-cyano-2-chlorophenyl)urea], the inhibition at 3 µM is 76 to 100%.

Turning to `CC(C)(C)c1cc(C(=O)N2CCNS(=O)(=O)CC2)c(NC(=O)Nc2ccc3c(c2)OCO3)s1` [Example 93, 1-Benzo[1,3]dioxol-5-yl-3-[5-tert-butyl-3-(1,1-dioxo-1λ^6-[1,2,5]thiadiazepane-5-carbonyl)thiophen-2-yl]urea], the inhibition at 3 µM was 76 to 100%.

As for `CC(C)(C)c1cc(C(=O)N2CCNS(=O)(=O)CC2)c(NC(=O)Nc2ccc3c(c2)OC(F)(F)O3)s1` [Example 94, 1-[5-tert-Butyl-3-(1,1-dioxo-1λ^6-[1,2,5]thiadiazepane-5-carbonyl)thiophen-2-yl]-3-(2,2-difluorobenzo[1,3]dioxol-5-yl)urea], the inhibition at 3 µM lay within 76 to 100%.

`COc1ccc(NC(=O)Nc2sc(C(C)(C)C)cc2C(=O)N2CCNS(=O)(=O)CC2)cc1Cl` [Example 95, 1-[5-tert-Butyl-3-(1,1-dioxo-1λ^6-[1,2,5]thiadiazepane-5-carbonyl)thiophen-2-yl]-3-(3-chloro-4-methoxyphenyl)urea]: the inhibition at 3 µM is 76 to 100%.

Regarding `CC(C)(C)c1cc(C(=O)N2CCNS(=O)(=O)CC2)c(NC(=O)Nc2ccc(Cl)c(Cl)c2)s1` [Example 96, 1-[5-tert-Butyl-3-(1,1-dioxo-1λ^6-[1,2,5]thiadiazepane-5-carbonyl)thiophen-2-yl]-3-(3,4-dichlorophenyl)urea], the inhibition at 3 µM lay within 76 to 100%.

As to `CC(C)(C)c1cc(C(=O)N2CCNC(=O)CC2)c(NC(=O)NC2CCNCC2)s1` [Example 120, 1-[5-tert-Butyl-3-(5-oxo-[1,4]diazepane-1-carbonyl)thiophen-2-yl]-3-piperidin-4-ylurea], the protein kinase inhibition (tested at 3 μM according to the procedure described above) is on record as 0-25%.

`CC(C)(C)c1cc(C(=O)NCc2cccnc2)c(NC(=O)Nc2cccc(Cl)c2Cl)s1` [Example 130, 5-tert-butyl-2-[3-(2,3-dichlorophenyl)ureido]thiophene-3-carboxylic acid (pyridin-3-ylmethyl)amide]: the inhibition at 0.5 µM (same procedure at 0.5 μM) was 76 to 100%.
